Results: patent EP0336753A1, “Improvements in or relating to propanamine derivatives” (ELI LILLY AND COMPANY, priority 1988, dated 1989)
Read-outs that look alike come from different tables or passages of the source.

Key:
[1] = target: T1, norepinephrine (NE) uptake (Rattus norvegicus, UniProt Q63380); assay: Inhibition of synaptosomal uptake of 14C-l-norepinephrine in vitro; assay type: biochemical, rats; conditions: for IC50: 100 nM ¹⁴C-NE, 37°C for 5 min, read-out: IC₅₀(nM) NE; for inhibition at 1 µM: read-out: percent inhibition at 1000 nM (NE)
T1 construct: Crude synaptosomal preparations were isolated after differential centrifugation; from tissue; host or cells: rat cerebral cortex, crude synaptosomes
Method: (§1) This general procedure is set forth by Wong et al., in Drug Development Research 6:397-403 (1985).
(§2) Male Sprague-Dawley rats (110-150 g) from Harlan Industries (Cumberland, IN) were fed a Purina Chow ad libitum for at least 3 days before being used in the studies. Rats were killed by decapitation. Whole brains were removed and dissected. Cerebral cortex was homogenized in 9 volumes of a medium containing 0.32 M sucrose and 10 mM glucose. Crude synaptosomal preparations were isolated after differential centrifugation at 1,000 g for 10 min. and 17,000 g for 28 min. The final pellets were suspended in the same medium and kept in ice until use within the same day.
(§3) Synaptosomal uptake of ³H-serotonin(³H-5-hydroxytryptamine, ³H-5HT) and ¹⁴C-ℓ-norepinephrine (¹⁴C-NE) was determined as follows. Cortical synaptosomes (equivalent to 1 mg of protein) were incubated at 37°C for 5 min in 1 ml of Krebs-bicarbonate medium containing also 10 mM glucose, 0.1 mM iproniazid, 1 mM ascorbic acid, 0.17 mM EDTA, 50nM, ³H-5HT and 100 nM ¹⁴C-NE. The reaction mixture was immediately diluted with 2 ml of ice-chilled Krebs-bicarbonate buffer and filtered under vacuum with a cell harvester (Brandel, Gaithersburg, MD). Filters were rinsed twice with approximately 5 ml of ice-chilled 0.9% saline and were transferred to a counting vial containing 10 ml of scintillation fluid (PCS, Amersham, Arlington Heights, IL). Radioactivity was measured by a liquid scintillation spectrophotometer. Accumulation of ³H-5HT and ¹⁴C-NE at 4°C represented the background and was subtracted from all samples.
(§4) The results of the evaluation of various compounds of the present invention are set forth below in Table I. In the Table, column 1 identifies the Example number of the compounds evaluated, and columns 2 and 3 provide the concentration of the test compound at 10⁻⁹M (nM) needed to inhibit 50% of serotonin (5HT) or norepinephrine, respectively, and is indicated in the Table as IC₅₀. The numbers in parentheses represent percent inhibition at 1000 nM.

serotonin (5HT) uptake = target: T2, serotonin (5HT) uptake (Rattus norvegicus, UniProt P31652); assay: Inhibition of synaptosomal uptake of 3H-serotonin in vitro; assay type: biochemical, rats; conditions: for inhibition at 1 µM: 1000 nM test compound, number in parentheses, read-out: percent inhibition at 1000 nM (5HT)
T2 construct: Crude synaptosomal preparations were isolated after differential centrifugation; from tissue; host or cells: rat cerebral cortex, crude synaptosomes
Method: as §1, §2, §3, §4

[2] = rat cerebral cortex synaptosomes
[3] = 1000 nM test compound, number in parentheses, rat cerebral cortex synaptosomes

T1 sequence (Q63380 1-617): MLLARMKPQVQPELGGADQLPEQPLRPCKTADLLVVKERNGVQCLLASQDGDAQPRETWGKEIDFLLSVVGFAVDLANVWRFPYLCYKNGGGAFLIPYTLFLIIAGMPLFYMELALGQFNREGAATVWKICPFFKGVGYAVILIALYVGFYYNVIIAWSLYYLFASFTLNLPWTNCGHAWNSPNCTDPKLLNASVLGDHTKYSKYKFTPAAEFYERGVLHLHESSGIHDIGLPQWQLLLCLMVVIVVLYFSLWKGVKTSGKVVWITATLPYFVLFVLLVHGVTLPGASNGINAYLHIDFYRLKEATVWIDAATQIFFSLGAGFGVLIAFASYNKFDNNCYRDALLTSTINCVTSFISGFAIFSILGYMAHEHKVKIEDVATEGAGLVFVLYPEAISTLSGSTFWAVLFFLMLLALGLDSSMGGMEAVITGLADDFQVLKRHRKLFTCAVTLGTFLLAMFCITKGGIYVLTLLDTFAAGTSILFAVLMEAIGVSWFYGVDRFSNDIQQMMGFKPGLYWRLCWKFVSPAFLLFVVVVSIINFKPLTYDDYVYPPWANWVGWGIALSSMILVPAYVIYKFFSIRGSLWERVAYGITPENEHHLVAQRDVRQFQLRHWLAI
T2 sequence (P31652 whole entry): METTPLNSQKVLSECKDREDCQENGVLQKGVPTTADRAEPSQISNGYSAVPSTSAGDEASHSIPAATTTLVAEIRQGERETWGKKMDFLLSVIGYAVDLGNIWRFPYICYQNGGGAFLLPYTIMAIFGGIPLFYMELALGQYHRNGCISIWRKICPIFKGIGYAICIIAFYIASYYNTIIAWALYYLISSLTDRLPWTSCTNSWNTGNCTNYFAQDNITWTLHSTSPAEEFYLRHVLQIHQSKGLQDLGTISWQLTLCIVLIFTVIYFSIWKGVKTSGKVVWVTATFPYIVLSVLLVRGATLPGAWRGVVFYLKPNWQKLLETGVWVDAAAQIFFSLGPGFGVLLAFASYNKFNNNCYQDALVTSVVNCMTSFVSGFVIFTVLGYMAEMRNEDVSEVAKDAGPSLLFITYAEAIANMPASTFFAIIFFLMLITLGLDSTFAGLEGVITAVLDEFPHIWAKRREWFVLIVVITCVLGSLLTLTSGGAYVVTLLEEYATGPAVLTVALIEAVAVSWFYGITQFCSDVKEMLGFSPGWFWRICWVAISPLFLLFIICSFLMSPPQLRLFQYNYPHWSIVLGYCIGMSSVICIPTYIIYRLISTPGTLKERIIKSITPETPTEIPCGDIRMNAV

Row | SMILES | IC50 [1, 2] [nM] | inhibition at 1 µM [1] [%] | IC50 (serotonin (5HT) uptake) [nM] | inhibition at 1 µM [1, 3] [%] | inhibition at 1 µM (serotonin (5HT) uptake; [2]) [%] | IC50 (serotonin (5HT) uptake; rat cerebral cortex synaptosomes, 50 nM ³H-5HT, 37°C for 5 min, read-out: IC₅₀(nM) 5HT) [nM]
1 | CSc1ccc(OC(CCN(C)C)c2ccccc2)cc1 (centres unmarked) [Example 1, N,N-Dimethyl-γ-[4-(methylthio)phenoxy]benzenepropanamine ethanedioate] | > 1000 | 18 | 160 |  |  | 
2 | CNCCC(Oc1ccc(SC)cc1)c1ccccc1 (centres unmarked) [Example 2, N-Methyl-γ-[4-(methylthio)phenoxy]benzenepropanamine ethanedioate] | 704 |  | 48 |  |  | 
3 | CNCCC(Oc1ccc(SC(F)(F)F)cc1)c1ccccc1 (centres unmarked) [Example 3, N-Methyl-γ-{4-[trifluoromethyl)thio]phenoxy}benzenepropanamine ethanedioate] | > 1000 |  |  | 9 | 39 | > 1000
4 | CN(C)CCC(Oc1ccc(S(N)(=O)=O)cc1)c1ccccc1 (centres unmarked) [Example 4, 4-[3-(Dimethylamino)-1-phenylpropoxy]benzenesulfonamide ethanedioate] | > 1000 | 0 | > 1000 |  | 15 | 
5 | CN(C)CCC(Oc1ccc(NS(C)(=O)=O)cc1)c1ccccc1 (centres unmarked) [Example 5, N-{4-[1-Phenyl-3-(dimethylamino)propoxy]phenyl}methanesulfonamide] | > 1000 |  | > 1000 | 15 | 30 | 
